{
  "source": "patent US8058009B2",
  "about": "“Target protein and target gene in drug designing and screening method” (Reverse Proteomics Research Institute Co., Ltd., priority 2004, dated 2011)",
  "key": {"FLJ11045-derived protein": {"molecular_target": "T1, FLJ11045-derived protein (Homo sapiens, UniProt Q9BXT8, E1380K)", "T1 construct": "made in house; host or cells: wheat germ cell-free synthesis system (PROTEIOS, Toyobo)", "T1 sequence (Q9BXT8 949-1581 isoform Q9BXT8-4 E1338K)": "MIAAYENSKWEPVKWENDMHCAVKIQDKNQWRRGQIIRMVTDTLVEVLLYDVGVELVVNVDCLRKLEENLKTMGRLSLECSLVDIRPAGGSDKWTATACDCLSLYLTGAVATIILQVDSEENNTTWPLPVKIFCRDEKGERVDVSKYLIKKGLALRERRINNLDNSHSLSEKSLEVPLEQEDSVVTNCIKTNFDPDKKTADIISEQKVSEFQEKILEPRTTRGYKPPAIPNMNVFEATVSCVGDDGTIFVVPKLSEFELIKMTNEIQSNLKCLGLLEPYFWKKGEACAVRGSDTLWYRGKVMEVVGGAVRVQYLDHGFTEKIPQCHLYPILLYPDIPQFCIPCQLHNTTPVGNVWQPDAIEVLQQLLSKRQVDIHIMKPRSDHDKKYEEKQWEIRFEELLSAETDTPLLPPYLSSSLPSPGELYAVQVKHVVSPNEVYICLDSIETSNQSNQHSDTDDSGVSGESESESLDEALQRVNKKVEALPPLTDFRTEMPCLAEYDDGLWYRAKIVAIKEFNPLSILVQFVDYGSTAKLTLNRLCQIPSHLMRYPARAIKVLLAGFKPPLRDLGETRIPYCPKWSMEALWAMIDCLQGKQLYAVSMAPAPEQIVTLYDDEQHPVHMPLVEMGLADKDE", "assay": "Biacore S51 surface plasmon resonance binding to FLJ11045-derived protein", "source_text": "A desired gene of a human full-length cDNA clone was BP-reacted with the PCR cloning vector Gateway pDONR201 using the Invitrogen Gateway system per the kit protocol to yield an entry vector. As the destination vector for the Gateway system, a Gateway cassette having a Gateway recombinant sequence was introduced to allow the utilization of the Gateway system on the basis of pEU3-NII (Toyobo), which matches with a cell-free protein synthesis system (PROTEIOS) of Toyobo Co., Ltd., which employs a wheat germ extract, and a double tag destination vector modified using the PCR method to allow the expression of a peptide having a histidine tag and a FLAG tag sequence in the N-terminal region of the expressed protein was prepared.\nThe prepared double tag destination vector and entry vector were […] using the Invitrogen Gateway system per the protocol and the Escherichia coli competent cell DH5α was transformed therewith; a clone incorporating the expression vector was selected. A plasmid was prepared from the obtained clone using the QIAfilter Midi kit (QUIAGEN) per the kit protocol. The plasmid obtained was subjected to phenol/chloroform treatment per the protocol for PROTEIOS (Toyobo) to inactivate the RNase to yield a purified expression plasmid.\nA recombinant protein was synthesized using a cell-free protein synthesis system (PROTEIOS) of Toyobo Co., Ltd., which employs a wheat germ extract. Subsequently, mRNA was prepared from the expression plasmid acquired by the method described in section 1 above per the protocol for PROTEIOS. With 20 μg of the mRNA acquired, a protein was synthesized per the protocol for PROTEIOS using two wells of a 96-well microtiter plate. The protein synthesized was subjected to high-speed centrifugation, the precipitate was removed, and the resulting soluble fraction was purified using ANTI-FLAG M2 Affinity Gel (SIGMA Company) having an anti-FLAG tag antibody immobilized hereto per the protocol, to yield a purified protein.\n(§1) The surface of the CM5 sensor chip for S51 commercially available from Biacore Company was subjected to an NTA treatment with 1 M EDC, 1.33 M NHS and 16 mg/ml AB-NTA (pH 9.2) to prepare an NTA sensor chip for S51. […] A correction for the effect of DMSO contained in the compound solutions and running buffer (solvent correction) was performed on the basis of measured results from separately prepared solutions mimicking the running buffer, and containing 3.8 to 5.1% of DMSO (8 points). The compound characterization assay program for Biacore S51 was performed to measure the interactions between immobilized ligands (proteins) and analytes (compounds; 62.5 μM to 0.244 μM), and the results were analyzed using a dedicated software program. […]"}, "FLJ12502-derived protein": {"molecular_target": "T2, FLJ12502-derived protein (Homo sapiens, UniProt Q7Z3D6)", "T2 construct": "made in house; host or cells: wheat germ cell-free synthesis system (PROTEIOS, Toyobo)", "T2 sequence (Q7Z3D6 29-616)": "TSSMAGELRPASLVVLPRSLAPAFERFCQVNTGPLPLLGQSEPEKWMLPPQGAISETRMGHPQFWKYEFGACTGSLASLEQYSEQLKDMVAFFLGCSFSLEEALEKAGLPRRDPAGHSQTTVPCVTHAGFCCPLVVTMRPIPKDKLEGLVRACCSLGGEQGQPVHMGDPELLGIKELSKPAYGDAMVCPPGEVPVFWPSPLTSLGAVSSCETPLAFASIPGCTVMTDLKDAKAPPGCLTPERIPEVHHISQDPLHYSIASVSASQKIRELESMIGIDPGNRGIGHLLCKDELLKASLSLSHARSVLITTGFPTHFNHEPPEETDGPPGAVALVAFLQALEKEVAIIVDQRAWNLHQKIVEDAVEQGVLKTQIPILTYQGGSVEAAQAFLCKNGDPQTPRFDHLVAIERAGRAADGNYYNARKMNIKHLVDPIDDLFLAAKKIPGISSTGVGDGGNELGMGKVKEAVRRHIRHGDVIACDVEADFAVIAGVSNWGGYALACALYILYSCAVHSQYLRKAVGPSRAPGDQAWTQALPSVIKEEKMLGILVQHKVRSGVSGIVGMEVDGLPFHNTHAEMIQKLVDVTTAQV", "assay": "Biacore S51 surface plasmon resonance binding to FLJ12502-derived protein", "protocol": "(§2) A desired gene of a human full-length cDNA clone was BP-reacted with the PCR cloning vector Gateway pDONR201 using the Invitrogen Gateway system per the kit protocol to yield an entry vector. […]\nas §1"}, "[1]": {"test_system": "mutant SOD-transgenic mouse showing ALS-like symptoms", "settings": "intraperitoneally administered; cited from earlier work"}, "FLJ14583-derived protein": {"molecular_target": "T3, FLJ14583-derived protein (Homo sapiens, UniProt Q12816)", "T3 construct": "made in house; host or cells: wheat germ cell-free synthesis system (PROTEIOS, Toyobo)", "T3 sequence (Q12816 1-706 isoform Q12816-2)": "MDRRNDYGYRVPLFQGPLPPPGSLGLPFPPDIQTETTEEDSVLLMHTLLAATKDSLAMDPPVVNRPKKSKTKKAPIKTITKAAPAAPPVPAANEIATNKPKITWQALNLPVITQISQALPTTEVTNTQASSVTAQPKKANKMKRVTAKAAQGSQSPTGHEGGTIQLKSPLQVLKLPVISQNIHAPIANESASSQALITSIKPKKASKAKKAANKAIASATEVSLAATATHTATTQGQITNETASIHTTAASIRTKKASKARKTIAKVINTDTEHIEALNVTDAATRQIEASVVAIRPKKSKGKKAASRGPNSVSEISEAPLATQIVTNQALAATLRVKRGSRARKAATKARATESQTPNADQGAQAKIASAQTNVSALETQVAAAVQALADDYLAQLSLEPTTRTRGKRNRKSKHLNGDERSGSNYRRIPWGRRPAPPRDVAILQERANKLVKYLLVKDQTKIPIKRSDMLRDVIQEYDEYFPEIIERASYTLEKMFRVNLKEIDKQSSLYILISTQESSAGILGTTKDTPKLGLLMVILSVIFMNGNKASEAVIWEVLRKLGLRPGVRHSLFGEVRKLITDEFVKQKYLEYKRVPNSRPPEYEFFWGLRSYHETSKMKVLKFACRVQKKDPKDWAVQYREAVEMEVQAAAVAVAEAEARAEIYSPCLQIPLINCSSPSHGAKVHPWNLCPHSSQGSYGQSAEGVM", "assay": "Biacore S51 surface plasmon resonance binding to FLJ14583-derived protein", "protocol": "as §2, §1"}, "FLJ10335-derived protein": {"molecular_target": "T4, FLJ10335-derived protein (Homo sapiens, UniProt Q9NW38, S77P)", "T4 construct": "made in house; host or cells: wheat germ cell-free synthesis system (PROTEIOS, Toyobo)", "T4 sequence (Q9NW38 1-375 S77P)": "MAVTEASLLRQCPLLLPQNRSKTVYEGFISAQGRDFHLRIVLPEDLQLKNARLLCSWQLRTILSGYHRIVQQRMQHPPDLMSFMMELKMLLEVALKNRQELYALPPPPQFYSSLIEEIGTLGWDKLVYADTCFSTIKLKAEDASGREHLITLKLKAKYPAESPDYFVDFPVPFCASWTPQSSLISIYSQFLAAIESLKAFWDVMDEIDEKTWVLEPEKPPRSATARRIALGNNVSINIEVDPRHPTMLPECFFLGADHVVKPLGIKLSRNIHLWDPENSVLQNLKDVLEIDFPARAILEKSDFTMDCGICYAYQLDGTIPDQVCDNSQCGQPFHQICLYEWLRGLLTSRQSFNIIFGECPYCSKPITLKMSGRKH", "assay": "Biacore S51 surface plasmon resonance binding to FLJ10335-derived protein", "protocol": "as §2, §1"}, "FLJ10889-derived protein": {"molecular_target": "T5, FLJ10889-derived protein (Homo sapiens, UniProt Q7L7V1, A496G/L459S/P686L/V123M)", "T5 construct": "made in house; host or cells: wheat germ cell-free synthesis system (PROTEIOS, Toyobo)", "T5 sequence (Q7L7V1 1-743 V123M/L459S/A496G/P686L)": "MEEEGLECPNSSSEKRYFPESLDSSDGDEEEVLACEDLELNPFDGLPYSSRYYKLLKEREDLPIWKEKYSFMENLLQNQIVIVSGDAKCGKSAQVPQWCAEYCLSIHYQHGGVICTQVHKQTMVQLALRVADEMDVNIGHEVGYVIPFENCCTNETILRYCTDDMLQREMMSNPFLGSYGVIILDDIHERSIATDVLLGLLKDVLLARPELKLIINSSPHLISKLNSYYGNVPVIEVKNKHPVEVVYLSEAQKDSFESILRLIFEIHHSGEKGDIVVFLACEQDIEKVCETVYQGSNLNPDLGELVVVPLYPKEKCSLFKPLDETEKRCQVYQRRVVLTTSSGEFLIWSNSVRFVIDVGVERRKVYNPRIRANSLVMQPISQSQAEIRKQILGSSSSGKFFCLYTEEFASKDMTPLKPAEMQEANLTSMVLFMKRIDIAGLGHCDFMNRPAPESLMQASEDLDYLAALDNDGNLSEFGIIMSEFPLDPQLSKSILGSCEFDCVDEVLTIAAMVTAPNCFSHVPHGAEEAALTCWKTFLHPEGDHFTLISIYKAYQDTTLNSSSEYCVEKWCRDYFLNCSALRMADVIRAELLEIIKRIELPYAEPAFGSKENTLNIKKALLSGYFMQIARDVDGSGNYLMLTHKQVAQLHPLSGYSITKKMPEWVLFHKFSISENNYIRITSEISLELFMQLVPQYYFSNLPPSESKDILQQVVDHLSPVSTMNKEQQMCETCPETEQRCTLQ", "assay": "Biacore S51 surface plasmon resonance binding to FLJ10889-derived protein", "protocol": "as §2, §1"}},
  "data": [
    {"compound": "CC1=C(C(=O)O)N2C(=O)[C@@H](NC(=O)[C@H](N)c3ccc(O)cc3)[C@H]2SC1", "note": "[cefadroxil]", "values": [
      {"measurement": "Kd", "setting": "FLJ11045-derived protein; Biacore S51, immobilized FLJ11045-derived protein, analyte 62.5 μM to 0.244 μM, read-out: binding dissociation constant Kd", "value": 11.5, "unit": "µM"},
      {"measurement": "interaction with the protein (binding level dose-proportional, saturated at high doses)", "setting": "FLJ11045-derived protein; FLJ11045-derived protein, Biacore S51", "value": "interact specifically"}
    ]},
    {"compound": "C[C@H]1[C@H](C)CC[C@]2(C(=O)O)CC[C@]3(C)C(=CC[C@@H]4[C@@]5(C)CC[C@H](O)C(C)(C)[C@@H]5CC[C@]43C)[C@H]12", "note": "[ursolic acid]", "values": [
      {"measurement": "interaction with the protein (binding level dose-proportional, saturated at high doses)", "setting": "FLJ12502-derived protein", "value": "interact specifically"}
    ]},
    {"compound": "CO/N=C(\\C(=O)N[C@@H]1C(=O)N2C(C(=O)O)=C(CSc3nc(=O)c(=O)[nH]n3C)CS[C@H]12)c1csc(N)n1", "note": "[ceftriaxone]", "values": [
      {"measurement": "expression of GLT1 in the spinal cord", "setting": "[1]", "value": "increased"},
      {"measurement": "muscle strength", "setting": "[1]", "value": "increase in the muscle strength"},
      {"measurement": "neuron number", "setting": "[1]", "value": "recovery of neuron number"}
    ]},
    {"compound": "Cc1onc(-c2c(Cl)cccc2Cl)c1C(=O)N[C@@H]1C(=O)N2[C@@H]1SC(C)(C)[C@@H]2C(=O)O", "note": "[dicloxacillin]", "values": [
      {"measurement": "Kd", "setting": "FLJ14583-derived protein; Biacore S51, immobilized FLJ14583-derived protein, analyte 62.5 μM to 0.244 μM, read-out: binding dissociation constant Kd", "value": 23, "unit": "µM"},
      {"measurement": "interaction with the protein (binding level dose-proportional, saturated at high doses)", "setting": "FLJ14583-derived protein; FLJ14583-derived protein, Biacore S51", "value": "interact specifically"}
    ]},
    {"compound": "CC(C)C[C@H](NC(=O)[C@@H](O)[C@H](N)Cc1ccccc1)C(=O)O", "note": "[ubenimex]", "values": [
      {"measurement": "interaction with the protein (binding level dose-proportional, saturated at high doses)", "setting": "FLJ10335-derived protein", "value": "interact specifically"}
    ]},
    {"compound": "CC[C@@]1(O)C[C@H](O[C@H]2C[C@H](N(C)C)[C@H](O[C@H]3C[C@H](O)[C@H](O[C@H]4CCC(=O)[C@H](C)O4)[C@H](C)O3)[C@H](C)O2)c2c(cc3c(c2O)C(=O)c2c(O)cccc2C3=O)[C@H]1C(=O)OC", "note": "[aclarubicin]", "values": [
      {"measurement": "interaction with the protein (binding level dose-proportional, saturated at high doses)", "setting": "FLJ10889-derived protein", "value": "interact specifically"}
    ]}
  ]
}
